What was measured:
[1] = test system: SKBR3 tumor cells (HER2+); test: In vitro cytotoxic activity screening (CTG assay); format: cell-based
Protocol: (§1) In this experiment, the ATP content was determined using CTG to reflect the survival condition of the tumor cells. […] The killing effect of the toxin molecule was then assayed according to this condition.
(§2) According to the purpose of the experiment, two disease models of breast cancer and NSCLC were selected, and three cell strains of SKBR3 tumor cells (HER2+, ATCC, Cat# HTB-30), MDA-MB-468 (HER2-, ATCC, Cat# HTB-132) and A549 (human non-small cell lung cancer cells, ATCC, Cat# CCL-185) were selected for screening.
(§3) The cells were counted, and 4.3 × 10^5, 7.2 × 10^5 and 11.5 × 10^5 cells were each added to a culture solution to give a final volume of 26 mL. 180 µL of cell suspension was added to each well in columns 2 to 11 of a 96-well plate (Corning, Cat# 3903) to give cell densities of 3K, 5K, and 8K per well. Wells in column 12 were each filled with 200 µL of culture solution and the remaining wells were each filled with PBS. The SKBR3 and MDA-MB-468 cells were subjected to the same operations described above. […] 2 mM stock solution (stock solution diluted 10-fold in DMSO) was prepared in column 1 of drug preparation plate 1, and then 10-fold gradient dilution in DMSO was performed through column 10, and the wells in column 11 were filled with DMSO. 95 µL of corresponding culture solution was added into each well from column 2 to column 11 of the drug preparation plate 2, and 5 µL of solution was pipetted from column 2 to column 11 of drug preparation plate 1 to drug preparation plate 2. The solution was mixed well, and 20 µL of solution was pipetted and added into the plated cells. The cells were then cultured for 3 days and 5 days. • 4) CTG assay (Cell Titer-GloTM, luminescent cell viability assay, Promega): the cell plates were taken out on day 3 and day 5 and equilibrated to room temperature. 90 µL of CTG was added into each well, and the mixture was reacted at room temperature for 10 min in the dark. The luminescence value was read using a microplate reader and IC50 was calculated.

MDA-MB-468 (HER2-) = test: In vitro cytotoxic activity screening (CTG assay); format: cell-based
Protocol: as §1, §2, §3

[2] = test system: A549 (human non-small cell lung cancer cells); test: In vitro cytotoxic activity screening (CTG assay); format: cell-based
Protocol: as §1, §2, §3

[3] = Pharmacokinetic study in beagles, intravenous administration, plasma by LC/MS/MS; details: 0.5 mg/kg
Protocol: The pharmacokinetic behavior of the compound of the present disclosure in dogs was studied, and its pharmacokinetic profile was evaluated.
Six male beagles were divided into 2 groups of 3, purchased from Shanghai Medicilon Inc., and subjected to an administration test.
The collected blood samples were each placed in EDTA-K2 anticoagulant blood collection tubes, and the collected whole blood was placed on ice and centrifuged within 1 h to isolate the plasma (centrifugal force: 2200 g, centrifugal time: 10 min, 2-8 °C). Plasma samples were stored in a refrigerator at -80 °C prior to testing.
The content of the test compounds in beagle plasma after the injection was determined: 25 µL of beagle plasma at each time point after the administration was mixed with 50 µL (100 ng/mL) of internal standard solution camptothecin (China National Institutes for Food and Drug Control) and 200 µL of acetonitrile. The mixture was vortexed for 5 min and centrifuged for 10 min (3700 rpm), and 3-4 µL of the supernatant of the plasma sample was taken for LC/MS/MS assay (API4000 triple quadrupole tandem mass spectrometer (No. 2), Applied Biosystems, USA; Shimadzu, LC-30AD ultra high performance liquid chromatography system, Shimadzu, Japan).

SMILES | IC50 ([1]; Homo sapiens, SK-BR-3) | Maximum inhibition rate ([1]; SKBR3, CTG) | IC50 (MDA-MB-468 (HER2-); Homo sapiens, MDA-MB-468) | Maximum inhibition rate (MDA-MB-468 (HER2-); MDA-MB-468, CTG) | Maximum inhibition rate ([2]; A549, CTG) | IC50 ([2]; Homo sapiens, A549) | Plasma concentration C5min ([3]; beagles, intravenous) | concentration at 5 min ([3]; male, beagle, dog, in vivo, iv)
C=C1C[C@@H]2CC[C@@]34C[C@H]5O[C@H]6[C@@H](O3)[C@H]3O[C@H](CC[C@@H]3O[C@H]6[C@H]5O4)CC(=O)C[C@@H]3[C@@H](OC)[C@@H](C[C@@H](CN)OC)O[C@H]3C[C@H]3O[C@@H](CC[C@@H]1O2)C[C@@H](C)C3=C [Compound 1] | 205 pM | 96.87% | 183 pM | 88.01% | 81.34% | 515 pM | 82.1 ng/mL | –
C=C1C[C@@H]2CC[C@@]34C[C@H]5O[C@H]6[C@@H](O3)[C@H]3O[C@H](CC[C@@H]3O[C@H]6[C@H]5O4)CC(=O)C[C@@H]3[C@@H](OC)[C@@H](C[C@H](O)CN)O[C@H]3C[C@H]3O[C@@H](CC[C@@H]1O2)C[C@@H](C)C3=C [Eribulin, eribulin, reference compound] | – | – | – | – | – | – | – | 217 ng/mL
